# In ChEMBL document CHEMBL3885861, “Open TG-GATES”:
# Species: Rattus norvegicus
# Experiment: Open TG-GATES - Regimen: Single
# Format: toxicity, organism-based, Sprague-Dawley
# Set-up: regimen Single, gender Male, age 6 weeks
# Conditions: in vivo, po, 50 mg/kg, route gavage, dose level Middle; for APTT / Bas / Eos / Fbg / Hb / Ht / Lym / MCHC / MCV / Mono / Neu / PT / Plat / RBC / Ret / WBC: tissue Blood; for KIDNEY_L / KIDNEY_R / KIDNEY_TOTAL: tissue Kidney; for LIVER: tissue Liver; for ALP / ALT / AST / BUN / CRE / Ca / Cl / DBIL / GLC / IP / K / LDH / Na / PL / RALB / TBIL / TC / TG / TP / gamma-GTP: tissue Plasma
compound,measurement,setting,value
C1CCC(C(CC2CCCCN2)C2CCCCC2)CC1 (configuration not stated) [PERHEXILINE],TERMINAL_BW,9 h,203.5 g
same,APTT,9 h,21 s
same,Bas,9 h,0%
same,Eos,9 h,0.6%
same,Fbg,9 h,325.2 mg/dL
same,Hb,9 h,13.1 g/dL
same,Ht,9 h,39.1%
same,Lym,9 h,76.2%
same,MCHC,9 h,33.6%
same,MCV,9 h,63.4 fL
same,Mono,9 h,1.8%
same,Neu,9 h,20.2%
same,PT,9 h,15.5 s
same,Plat,9 h,130 x10_4/uL
same,RBC,9 h,617.6 x10_4/ul
same,Ret,9 h,7.4%
same,WBC,9 h,69.7 x10_2/uL
same,KIDNEY_L,9 h,1 g
same,KIDNEY_R,9 h,1 g
same,KIDNEY_TOTAL,9 h,1.9 g
same,LIVER,9 h,8.5 g
same,ALP,9 h,1598.6 IU/L
same,ALT,9 h,40.2 IU/L
same,AST,9 h,69 IU/L
same,BUN,9 h,11 mg/dL
same,CRE,9 h,0.1 mg/dL
same,Ca,9 h,10.8 mg/dL
same,Cl,9 h,105.4 meq/L
same,DBIL,9 h,0.002 mg/dL
same,GLC,9 h,169.8 mg/dL
same,IP,9 h,9.9 mg/dL
same,K,9 h,4.1 meq/L
same,LDH,9 h,238.2 IU/L
same,Na,9 h,139.2 meq/L
same,PL,9 h,137 mg/dL
same,RALB,9 h,3 g/dL
same,TBIL,9 h,0.018 mg/dL
same,TC,9 h,78.6 mg/dL
same,TG,9 h,39.4 mg/dL
same,TP,9 h,5.6 g/dL
same,gamma-GTP,9 h,1 IU/L
same,TERMINAL_BW,24 h,220 g
same,APTT,24 h,20.4 s
same,Bas,24 h,0%
same,Eos,24 h,1%
same,Fbg,24 h,309.4 mg/dL
same,Hb,24 h,13.5 g/dL
same,Ht,24 h,40.3%
same,Lym,24 h,82%
same,MCHC,24 h,33.4%
same,MCV,24 h,63.4 fL
same,Mono,24 h,2%
same,Neu,24 h,14%
same,PT,24 h,15.6 s
same,Plat,24 h,116.9 x10_4/uL
same,RBC,24 h,635.4 x10_4/ul
same,Ret,24 h,6.5%
same,WBC,24 h,92.8 x10_2/uL
same,KIDNEY_L,24 h,0.9 g
same,KIDNEY_R,24 h,1 g
same,KIDNEY_TOTAL,24 h,1.9 g
same,LIVER,24 h,10.2 g
same,ALP,24 h,1673.6 IU/L
same,ALT,24 h,43.2 IU/L
same,AST,24 h,72.8 IU/L
same,BUN,24 h,15.4 mg/dL
same,CRE,24 h,0.2 mg/dL
same,Ca,24 h,10.7 mg/dL
same,Cl,24 h,108 meq/L
same,DBIL,24 h,0 mg/dL
same,GLC,24 h,179.8 mg/dL
same,IP,24 h,7.4 mg/dL
same,K,24 h,4.4 meq/L
same,LDH,24 h,240.6 IU/L
same,Na,24 h,143.4 meq/L
same,PL,24 h,146.4 mg/dL
same,RALB,24 h,3.2 g/dL
same,TBIL,24 h,0.01 mg/dL
same,TC,24 h,72 mg/dL
same,TG,24 h,117.2 mg/dL
same,TP,24 h,5.6 g/dL
same,gamma-GTP,24 h,1 IU/L
